Results published in PubChem BioAssay AID328 (DTP/NCI, 2004).
“And” between values parts separate entries of the source, which are not always exact repeats. Equal entries are not always repeated. Inconclusive results and toxic doses are left out.

Tested on: BDF1 mice, P388 leukemia ip, median survival T/C
Experiment: NCI In Vivo Anticancer Drug Screen. Data for tumor model P388 Leukemia (intraperitoneal) in B6D2F1 (BDF1) mice
Conditions: endpoint: median survival time, higher = longer survival
How it was run: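 T/C = treated-group survival ÷ vehicle-control survival; tumour transplanted into mice before dosing.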

[1] = dose: 25.0 mg/kg/injection, schedule: Q01DX009 (ip), vehicle: saline
[2] = dose: 50.0 mg/kg/injection, schedule: Q04DX003 (ip), vehicle: Klucel (hydroxypropylcellulose) (HPC)
[3] = dose: 100.0 mg/kg/injection, schedule: Q04DX003 (ip), vehicle: Klucel (hydroxypropylcellulose) (HPC)
[4] = dose: 100.0 mg/kg/injection, schedule: Q04DX003 (ip), vehicle: saline with Tween-80
[5] = dose: 200.0 mg/kg/injection, schedule: Q04DX003 (ip), vehicle: saline with Tween-80
[6] = dose: 400.0 mg/kg/injection, schedule: Q04DX003 (ip), vehicle: saline with Tween-80
[7] = dose: 50.0 mg/kg/injection, schedule: Q01DX009 (ip), vehicle: saline with Tween-80
[8] = dose: 100.0 mg/kg/injection, schedule: Q01DX009 (ip), vehicle: saline with Tween-80
[9] = dose: 200.0 mg/kg/injection, schedule: Q04DX003 (ip), vehicle: Klucel (hydroxypropylcellulose) (HPC)
[10] = dose: 200.0 mg/kg/injection, schedule: Q01DX009 (ip), vehicle: saline with Tween-80
[11] = dose: 50.0 mg/kg/injection, schedule: Q01DX009 (ip), vehicle: saline
[12] = dose: 50.0 mg/kg/injection, schedule: Q04DX003 (ip), vehicle: saline
[13] = dose: 100.0 mg/kg/injection, schedule: Q01DX009 (ip), vehicle: saline
[14] = dose: 100.0 mg/kg/injection, schedule: Q04DX003 (ip), vehicle: saline

CC(N)C(=O)NC(C)C(=O)O (stereo unspecified)
T/C (dose: 100.0 mg/kg/injection, schedule: Q01DX001 (ip), vehicle: saline): 98 % of control
T/C (dose: 200.0 mg/kg/injection, schedule: Q01DX001 (ip), vehicle: saline): 100 % of control
T/C (dose: 400.0 mg/kg/injection, schedule: Q01DX001 (ip), vehicle: saline): 99 % of control

CN=C(N)c1ccc(N=C(N)c2ccc(N=C(N)c3ccc(N)cc3)cc2)cc1
T/C (dose: 16.0 mg/kg/injection, schedule: Q01DX009 (ip), vehicle: saline): 227 % of control
T/C [1]: 245 % of control
T/C (dose: 35.0 mg/kg/injection, schedule: Q01DX009 (ip), vehicle: saline): 195 % of control

O=C(O)c1ccccc1C(=O)Nc1cc(Cl)ccc1Cl
T/C [2]: 91 % of control
T/C [3]: 100 % of control

ON=C(Cc1ccccc1)Cc1ccccc1
T/C [4]: 100 % of control
T/C [5]: 109 % of control
T/C [6]: 109 % of control

CCOc1ccc(NC(=S)N(C)C)cc1
T/C [7]: 90 % of control
T/C [8]: 86 % of control

CC1(O)c2cccc3c2C2(O)c4c1cccc4C(C)(O)c1cccc(c12)C3(C)O (stereo unspecified)
T/C [2]: 100 % of control
T/C [3]: 105 % of control
T/C [9]: 105 % of control

CC1(C)N=C(N)N=C(N)N1c1ccc(CCCCc2cccc(S(=O)(=O)F)c2)c(Cl)c1
T/C (dose: 1.0 mg/kg/injection, schedule: Q01DX009 (ip), vehicle: saline with Tween-80): 119 % of control
T/C (dose: 1.32 mg/kg/injection, schedule: Q01DX009 (ip), vehicle: saline with Tween-80): 150 % of control
T/C (dose: 2.0 mg/kg/injection, schedule: Q01DX009 (ip), vehicle: saline with Tween-80): 150 % of control
T/C (dose: 3.0 mg/kg/injection, schedule: Q01DX009 (ip), vehicle: saline with Tween-80): 154 % of control
T/C (dose: 4.0 mg/kg/injection, schedule: Q01DX009 (ip), vehicle: saline with Tween-80): 161 % of control
T/C (dose: 8.0 mg/kg/injection, schedule: Q01DX009 (ip), vehicle: saline with Tween-80): 161 % of control and 170 % of control
T/C (dose: 12.0 mg/kg/injection, schedule: Q01DX009 (ip), vehicle: saline with Tween-80): 170 % of control
T/C (dose: 12.5 mg/kg/injection, schedule: Q04DX003 (ip), vehicle: saline with Tween-80): 109 % of control
T/C (dose: 18.0 mg/kg/injection, schedule: Q01DX009 (ip), vehicle: saline with Tween-80): 200 % of control

COc1cc(/C=N/N2CCCCC2)cc(OC)c1OC
T/C [8]: 100 % of control
T/C [4]: 100 % of control
T/C [10]: 90 % of control
T/C [5]: 100 % of control
T/C (dose: 400.0 mg/kg/injection, schedule: Q01DX009 (ip), vehicle: saline with Tween-80): 100 % of control
T/C [6]: 90 % of control

CC(=N\O)/C(C)=N/O.CC(=N\O)/C(C)=N/O.O=C(O)C1CC[N-]CC1.O=C(O)C1CC[N-]CC1.O=C(O)C1CC[N-]CC1.O=C(O)C1CC[N-]CC1.[Cl-].[Cl-].[Cl][Rh][Cl].[Rh+3]
T/C (dose: 25.0 mg/kg/injection, schedule: Q01DX009 (ip), vehicle: water): 100 % of control
T/C (dose: 50.0 mg/kg/injection, schedule: Q01DX009 (ip), vehicle: water): 94 % of control
T/C (dose: 200.0 mg/kg/injection, schedule: Q01DX009 (ip), vehicle: water): 94 % of control
T/C (dose: 400.0 mg/kg/injection, schedule: Q01DX009 (ip), vehicle: water): 88 % of control

CCC(C(=O)O)c1ccccc1 (stereo unspecified)
T/C [7]: 90 % of control
T/C [10]: 109 % of control

CC[CH2][Sn]([Cl])([Cl])[CH2]CC
T/C (dose: 0.1 mg/kg/injection, schedule: Q01DX009 (ip), vehicle: Klucel (hydroxypropylcellulose) (HPC)): 100 % of control
T/C (dose: 0.2 mg/kg/injection, schedule: Q01DX009 (ip), vehicle: Klucel (hydroxypropylcellulose) (HPC)): 113 % of control
T/C (dose: 0.25 mg/kg/injection, schedule: Q01DX009 (ip), vehicle: Klucel (hydroxypropylcellulose) (HPC)): 90 % of control
T/C (dose: 0.4 mg/kg/injection, schedule: Q01DX009 (ip), vehicle: Klucel (hydroxypropylcellulose) (HPC)): 113 % of control
T/C (dose: 0.5 mg/kg/injection, schedule: Q01DX009 (ip), vehicle: Klucel (hydroxypropylcellulose) (HPC)): 100 % of control
T/C (dose: 1.0 mg/kg/injection, schedule: Q01DX009 (ip), vehicle: Klucel (hydroxypropylcellulose) (HPC)): 113 % of control
T/C (dose: 2.0 mg/kg/injection, schedule: Q01DX009 (ip), vehicle: Klucel (hydroxypropylcellulose) (HPC)): 122 % of control

Cc1[nH]c(=S)[nH]c(=O)c1CN(CCO)CCO
T/C (dose: 50.0 mg/kg/injection, schedule: Q01DX001 (ip), vehicle: Klucel (hydroxypropylcellulose) (HPC)): 96 % of control
T/C (dose: 100.0 mg/kg/injection, schedule: Q01DX001 (ip), vehicle: Klucel (hydroxypropylcellulose) (HPC)): 96 % of control
T/C (dose: 200.0 mg/kg/injection, schedule: Q01DX001 (ip), vehicle: Klucel (hydroxypropylcellulose) (HPC)): 96 % of control

CC[N+](CC)(CC)CCCCCC[N+](CC)(CC)CC
T/C (dose: 1.0 mg/kg/injection, schedule: Q01DX009 (ip), vehicle: water): 100 % of control
T/C (dose: 2.0 mg/kg/injection, schedule: Q01DX009 (ip), vehicle: water): 104 % of control
T/C (dose: 2.0 mg/kg/injection, schedule: Q04DX003 (ip), vehicle: water): 102 % of control and 103 % of control
T/C (dose: 4.0 mg/kg/injection, schedule: Q01DX009 (ip), vehicle: water): 97 % of control
T/C (dose: 4.0 mg/kg/injection, schedule: Q04DX003 (ip), vehicle: water): 116 % of control
T/C (dose: 6.0 mg/kg/injection, schedule: Q04DX003 (ip), vehicle: water): 102 % of control
T/C (dose: 6.25 mg/kg/injection, schedule: Q04DX003 (ip), vehicle: water): 123 % of control
T/C (dose: 8.0 mg/kg/injection, schedule: Q01DX009 (ip), vehicle: water): 104 % of control
T/C (dose: 8.0 mg/kg/injection, schedule: Q04DX003 (ip), vehicle: water): 100 % of control

Cc1nc2ccccc2c(=O)n1/N=C/c1ccco1
T/C [7]: 107 % of control
T/C [8]: 90 % of control

Nc1ccc(C(=O)Nc2ccc(Nc3ccncc3)cc2)c([N+](=O)[O-])c1
T/C (dose: 12.5 mg/kg/injection, schedule: Q01DX009 (ip), vehicle: saline): 97 % of control
T/C [1]: 97 % of control
T/C [11]: 119 % of control
T/C [12]: 94 % of control
T/C (dose: 75.0 mg/kg/injection, schedule: Q01DX009 (ip), vehicle: saline): 90 % of control
T/C [13]: 108 % of control
T/C [14]: 100 % of control
T/C (dose: 200.0 mg/kg/injection, schedule: Q01DX009 (ip), vehicle: saline): 111 % of control
T/C (dose: 200.0 mg/kg/injection, schedule: Q04DX003 (ip), vehicle: saline): 92 % of control
T/C (dose: 400.0 mg/kg/injection, schedule: Q01DX009 (ip), vehicle: saline): 111 % of control
T/C (dose: 400.0 mg/kg/injection, schedule: Q04DX003 (ip), vehicle: saline): 92 % of control

CCOC(=O)CC(=Nc1ccccc1OC)C(=O)OCC
T/C (dose: 100.0 mg/kg/injection, schedule: Q01DX009 (ip), vehicle: Klucel (hydroxypropylcellulose) (HPC)): 86 % of control
T/C [3]: 104 % of control
T/C (dose: 200.0 mg/kg/injection, schedule: Q01DX009 (ip), vehicle: Klucel (hydroxypropylcellulose) (HPC)): 86 % of control
T/C [9]: 95 % of control
T/C (dose: 400.0 mg/kg/injection, schedule: Q01DX009 (ip), vehicle: Klucel (hydroxypropylcellulose) (HPC)): 104 % of control
T/C (dose: 400.0 mg/kg/injection, schedule: Q04DX003 (ip), vehicle: Klucel (hydroxypropylcellulose) (HPC)): 95 % of control

Cc1ccccc1Nc1n[nH]c(=S)s1
T/C [7]: 95 % of control
T/C [8]: 95 % of control
T/C [10]: 104 % of control

CCOC(=O)C(C(=O)OCC)C1c2ccccc2C(=O)N(CCN(C)C)c2ccccc21 (stereo unspecified)
T/C [1]: 109 % of control
T/C [11]: 95 % of control
T/C [12]: 91 % of control
T/C [13]: 104 % of control
T/C [14]: 87 % of control

NCCNc1c[nH]c(=O)[nH]c1=O
T/C [7]: 110 % of control
T/C [8]: 103 % of control
T/C [10]: 103 % of control
